In ChEMBL document CHEMBL4402522, “Exploring the new horizons of drug repurposing: A vital tool for turning hard work into smart work” (2019):

What was measured:
C6 [1] = assay: (§1) Antitumour activity against rat C6 cells implanted in Wistar rat assessed as reduction in reactive astrocytes induced areas of blood vessels at 25 mg/kg, ip administered on alternate days in total 3 doses and measured on day 7 co-treated with temozolomide by immunohistochemical analysis relative to control; assay type: functional; set-up: scale not given: the % may be the effect or the level left
C6 [2] = assay: as §1, with “induced peri-tumoral” for “induced”, “areas” for “areas of blood vessels”; assay type: functional; set-up: scale not given: the % may be the effect or the level left

SMILES: CC[C@H](CO)Nc1nc(NCc2ccccc2)c2ncn(C(C)C)c2n1 [SELICICLIB]
- Activity (C6 [1]): 100%
- Activity (C6 [2]): 100%
